These are literature values, as cited in US20120088773A1, “Circadian rhythm modulation” (priority 2010, published 2012).

For data set [1] the following is noted: according to the CDC.
The subject of another data set is dopamine D(2) receptor. As to conditions: 200 mg oral caffeine compared to oral placebo.
For data set [2], the system named is D2 dopamine-mediated rotational behavior. The note with it: prior administration, dopamine-depleted rats.

`CC(=O)N[C@@H](Cc1ccc(O)cc1)C(=O)O` [N-acetyl-L-tyrosine]: the water solubility result is reported as “very water soluble”. The term half-life denotes the time in which the quantity being followed falls by half. Turning to `C=C1CC[C@H](O)C/C1=C/C=C1\CCC[C@]2(C)[C@@H]([C@H](C)CCCC(C)C)CC[C@@H]12` [vitamin D3, cholecalciferol], the half-life in data set [1] was 1 to 2 days. Turning to `Cn1c(=O)c2c(ncn2C)n(C)c1=O` [caffeine], in the data set on dopamine D(2) receptor, the “ventral striatal [(11)C]raclopride binding potential” value was “trend-level increase”. Besides, the “decrease in midline thalamic binding potential” value in the data set on dopamine D(2) receptor (p<0.001) was 12%. For the same molecule, the “D2 dopamine-mediated rotational behavior” value in data set [2] is “can sensitize D2 dopamine-mediated rotational behavior”.
